Patent US20240116988A1, “ANTI-ROR1 MACROCYCLIC PEPTIDES AND COMPOSITIONS” (BRISTOL-MYERS SQUIBB COMPANY, priority 2022, published 2024)
Positions of bridges follow the written chain, without caps; N, C: chain ends. Non-standard residues stand in square brackets, D forms with d. Residues, ends and D or L forms follow the SMILES beside them. ξ: configuration not given here. 2Nal = N[C@@H](Cc1ccc2ccccc2c1)C(=O)O; NMeF = CN[C@@H](Cc1ccccc1)C(=O)O; Ile(3ξ) = CCC(C)[C@H](N)C(=O)O; NMeA = CN[C@@H](C)C(=O)O; ξL = CC(C)CC(N)C(=O)O; ξA = CC(N)C(=O)O

target: T1, human ROR1 (Homo sapiens, UniProt Q01973); experiment: ROR1 high content cell-based binding assay; conditions: read-out: ROR1 Binding 293T Human HC Cell Based Assay IC50
T1 construct: host or cells: HEK 293T cells, Tet-on system induced with doxycycline
T1 sequence (Q01973 30-937): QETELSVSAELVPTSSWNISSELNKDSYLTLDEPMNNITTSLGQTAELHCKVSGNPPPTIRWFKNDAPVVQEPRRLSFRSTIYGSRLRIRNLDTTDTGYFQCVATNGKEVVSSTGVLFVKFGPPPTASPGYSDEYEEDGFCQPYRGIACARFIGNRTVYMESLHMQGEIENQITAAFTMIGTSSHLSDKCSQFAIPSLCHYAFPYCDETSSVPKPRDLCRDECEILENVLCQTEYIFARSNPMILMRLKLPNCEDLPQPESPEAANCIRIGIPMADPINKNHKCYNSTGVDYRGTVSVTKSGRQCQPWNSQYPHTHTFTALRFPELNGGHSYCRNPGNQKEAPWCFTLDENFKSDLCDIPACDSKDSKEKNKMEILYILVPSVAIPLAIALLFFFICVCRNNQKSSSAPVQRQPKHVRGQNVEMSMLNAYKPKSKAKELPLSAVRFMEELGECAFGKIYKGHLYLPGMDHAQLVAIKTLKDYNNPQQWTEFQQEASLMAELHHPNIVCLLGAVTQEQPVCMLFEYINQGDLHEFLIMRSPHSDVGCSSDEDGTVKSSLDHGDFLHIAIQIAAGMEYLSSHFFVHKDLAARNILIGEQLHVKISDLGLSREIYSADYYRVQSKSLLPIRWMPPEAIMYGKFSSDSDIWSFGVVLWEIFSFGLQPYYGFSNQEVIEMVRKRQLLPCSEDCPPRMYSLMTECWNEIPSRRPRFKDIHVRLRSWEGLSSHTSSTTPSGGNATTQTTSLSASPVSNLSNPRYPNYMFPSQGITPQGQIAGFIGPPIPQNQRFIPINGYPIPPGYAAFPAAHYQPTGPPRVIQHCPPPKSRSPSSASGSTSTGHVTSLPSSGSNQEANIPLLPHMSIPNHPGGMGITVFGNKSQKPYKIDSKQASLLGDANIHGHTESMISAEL
Experimental: ROR1 high content cell-based binding assay: Human embryonic kidney 293T cells (293T) expressing human ROR1 with Tet-on system by doxycycline were used (Arctic-488134) for the assessment of inhibition of the binding of fluorescently-labeled competing peptide (“Probe”) that specifically binds to human ROR1. […] Cryopreserved vials were thawed in a 37° C. water bath. Cells were washed in assay culture media [DMEM (Life Technologies Inc. Cat. […] Cat. No. 15140-122) and […] dox] and diluted 1.0×10^5 cells/mL. Cells were seeded into PDL-coated 384 well plates (BD Falcon Cat. No. 356663) at 2,000 cells/20 μL. Plates were allowed to incubate for 10 minutes at room temperature and then transferred to a 37° C./5% CO2 incubator for overnight incubation. The next day, 125 nL of the test compound was added using an ECHO followed by the addition of 5 μL/well of 5-FAM-labeled probe to cells at a final concentration of 30 nM. Sample were incubated for 1 hour at 37° C. for 1 hour, followed by 3 washes in […] of dPBS. Cells were fixed by adding 8% (w/v) formaldehyde (Sigma Cat. No. 252549), 20 μg/mL Hoechst (Thermo Scientific Cat. No. 62249) in PBS for 20 minutes at room temperature. The plates were washed 3 more times in dPBS and 15 μl of PBS was left in the wells following the last wash. The plates were sealed, and data was using obtained using a CellInsight NXT High Content Screening Platform IC903000 (Thermo Scientific).

Point of comparison: `CC(C)C[C@@H]1NC(=O)CNC(=O)[C@H](Cc2ccccc2)N(C)C(=O)CNC(=O)[C@H](Cc2ccc(O)cc2)NC(=O)[C@H](Cc2ccccc2)NC(=O)CSC[C@@H](C(N)=O)NC(=O)[C@H](Cc2c[nH]c3ccccc23)NC(=O)[C@H](Cc2ccc(O)cc2)NC1=O` [Example 1121] ({CH2CO}-FYG[NMeF]GLYWC-NH2; thioether N-9), IC50 378 nM. Against it:
- CC(C)C[C@@H]1NC(=O)[C@H](Cc2c[nH]c3ccccc23)NC(=O)[C@H](C(C)C)NC(=O)CNC(=O)[C@H](CO)NC(=O)[C@H](Cc2ccccc2)N(C)C(=O)[C@H](Cc2ccc(O)cc2)NC(=O)[C@H](Cc2ccc(O)cc2)NC(=O)[C@@H](Cc2ccccc2)NC(=O)CSC[C@@H](C(=O)NCC(N)=O)NC(=O)[C@H](C(C)C)NC(=O)[C@H](Cc2ccc(O)cc2)NC1=O [Example 1000] ({CH2CO}-[dF]YY[NMeF]SGVWLYVCG-NH2; thioether N-12) — 34-fold lower, 11 nM
- CC(C)C[C@@H]1NC(=O)[C@H](Cc2c[nH]c3ccccc23)NC(=O)[C@H](Cc2ccc(O)cc2)NC(=O)[C@H](Cc2c[nH]c3ccccc23)NC(=O)CNC(=O)[C@H](CO)NC(=O)[C@H](Cc2ccc(O)cc2)NC(=O)[C@H](C(C)C)NC(=O)[C@@H]2CCCN2C(=O)[C@H](Cc2ccc(O)cc2)NC(=O)[C@H](Cc2ccccc2)NC(=O)CSC[C@@H](C(N)=O)NC1=O [Example 1095] ({CH2CO}-FYPVYSGWYWLC-NH2; thioether N-12) — 34-fold lower, 11 nM
- CC(C)C[C@@H]1NC(=O)[C@H](Cc2ccc(O)cc2)NC(=O)[C@H](Cc2ccccc2)NC(=O)CSC[C@@H](C(=O)NCC(N)=O)NC(=O)[C@H](CC(C)C)NC(=O)[C@H](Cc2ccccc2)N(C)C(=O)[C@H](Cc2ccc(O)cc2)NC(=O)[C@H](Cc2c[nH]c3ccccc23)NC(=O)[C@H](C)NC(=O)[C@H](CO)NC(=O)[C@H](Cc2ccc(O)cc2)NC(=O)[C@H](C(C)C)NC1=O [Example 1071] ({CH2CO}-FYLVYSAWY[NMeF]LCG-NH2; thioether N-12) — 5.2-fold lower, 72 nM
- CC(C)C[C@@H]1NC(=O)[C@H](Cc2ccccc2)N(C)C(=O)[C@H](Cc2ccc(O)cc2)NC(=O)[C@H](Cc2c[nH]c3ccccc23)NC(=O)CNC(=O)[C@H](CO)NC(=O)[C@H](Cc2ccc(O)cc2)NC(=O)[C@H](C(C)C)NC(=O)[C@@H]2CCCN2C(=O)[C@H](Cc2ccc(O)cc2)NC(=O)[C@H](Cc2ccccc2)NC(=O)CSC[C@@H](C(=O)NCC(N)=O)NC1=O [Example 1066] ({CH2CO}-FYPVYSGWY[NMeF]LCG-NH2; thioether N-12) — 76-fold lower, 5 nM
- CC(C)C[C@@H]1NC(=O)[C@H](Cc2c[nH]c3ccccc23)NC(=O)[C@H](Cc2ccccc2)NC(=O)[C@H](Cc2c[nH]c3ccccc23)NC(=O)CNC(=O)[C@H](CO)NC(=O)[C@H](Cc2ccc(O)cc2)NC(=O)[C@H](C(C)C)NC(=O)[C@H](CCCNC(=N)N)NC(=O)[C@H](Cc2ccccc2)NC(=O)[C@H](Cc2ccccc2)NC(=O)CSC[C@@H](C(=O)NCC(N)=O)NC1=O [Example 1006] ({CH2CO}-FFRVYSGWFWLCG-NH2; thioether N-12) — 2.6-fold lower, 147 nM
- CC(C)C[C@@H]1NC(=O)[C@H](Cc2c[nH]cn2)NC(=O)[C@H](Cc2ccccc2)N(C)C(=O)CNC(=O)[C@H](Cc2ccc(O)cc2)NC(=O)[C@@H](Cc2ccccc2)NC(=O)CSC[C@@H](C(N)=O)NC(=O)[C@H](Cc2c[nH]c3ccccc23)NC(=O)[C@H](Cc2ccc(O)cc2)NC1=O [Example 1117] ({CH2CO}-[dF]YG[NMeF]HLYWC-NH2; thioether N-9) — 5.5-fold lower, 69 nM
- CC[C@H](C)[C@@H]1NC(=O)[C@H](Cc2ccccc2)NC(=O)CSC[C@@H](C(=O)NCC(N)=O)NC(=O)[C@H](C)NC(=O)[C@H](Cc2ccccc2)NC(=O)[C@H](Cc2ccc(O)cc2)NC(=O)[C@H](Cc2c[nH]c3ccccc23)NC(=O)CNC(=O)[C@H](CCC(=O)O)NC(=O)[C@H](Cc2ccc(O)cc2)NC(=O)[C@H](C(C)C)NC(=O)[C@H](Cc2c[nH]c3ccccc23)NC1=O [Example 1008] ({CH2CO}-FIWVYEGWYFACG-NH2; thioether N-12) — 10-fold lower, 36 nM
- CC(C)C[C@@H]1NC(=O)C(C)NC(=O)[C@H](Cc2ccccc2)N(C)C(=O)CNC(=O)[C@H](Cc2ccc(O)cc2)NC(=O)[C@H](Cc2ccccc2)NC(=O)CSC[C@@H](C(N)=O)NC(=O)[C@H](Cc2c[nH]c3ccccc23)NC(=O)[C@H](Cc2ccc(O)cc2)NC1=O (stereo partly drawn) [Example 1107] ({CH2CO}-FYG[NMeF][ξA]LYWC-NH2; thioether N-9) — within 1.5-fold, 553 nM
- CC(C)C[C@@H]1NC(=O)[C@H](Cc2c[nH]c3ccccc23)NC(=O)[C@H](Cc2ccccc2)NC(=O)[C@H](Cc2c[nH]c3ccccc23)NC(=O)CNC(=O)[C@H](CO)NC(=O)[C@H](Cc2ccc(O)cc2)NC(=O)[C@H](C(C)C)NC(=O)[C@@H]2CCCN2C(=O)[C@H](Cc2ccc(O)cc2)NC(=O)[C@H](Cc2ccccc2)NC(=O)CSC[C@@H](C(=O)NCC(N)=O)NC1=O [Example 1012] ({CH2CO}-FYPVYSGWFWLCG-NH2; thioether N-12) — 10-fold lower, 36 nM
- CC(C)C[C@@H]1NC(=O)[C@H](Cc2c[nH]c3ccccc23)NC(=O)[C@H](Cc2ccc(O)cc2)NC(=O)[C@H](Cc2c[nH]c3ccccc23)NC(=O)CNC(=O)[C@H](CO)NC(=O)[C@H](Cc2ccc(O)cc2)NC(=O)[C@H](C(C)C)NC(=O)[C@@H]2CCCN2C(=O)[C@H](Cc2ccc(O)cc2)NC(=O)[C@H](Cc2ccccc2)NC(=O)CSC[C@@H](C(=O)NCC(N)=O)NC1=O [Example 1001] ({CH2CO}-FYPVYSGWYWLCG-NH2; thioether N-12) — 7.7-fold lower, 49 nM
- CC(C)C[C@@H]1NC(=O)[C@H](Cc2ccc(O)cc2)NC(=O)[C@H](Cc2ccccc2)NC(=O)CSC[C@@H](C(=O)NCC(N)=O)NC(=O)[C@H](CC(C)C)NC(=O)[C@H](Cc2ccccc2)N(C)C(=O)[C@H](Cc2ccc(O)cc2)NC(=O)[C@H](Cc2c[nH]c3ccccc23)NC(=O)CNC(=O)CNC(=O)[C@H](Cc2ccc(O)cc2)NC(=O)[C@H](C(C)C)NC1=O [Example 1022] ({CH2CO}-FYLVYGGWY[NMeF]LCG-NH2; thioether N-12) — 11-fold lower, 34 nM
- CC(C)C[C@@H]1NC(=O)[C@H](Cc2ccc(O)cc2)NC(=O)[C@H](Cc2ccccc2)NC(=O)CSC[C@@H](C(=O)NCC(N)=O)NC(=O)[C@H](C)N(C)C(=O)[C@H](Cc2ccccc2)N(C)C(=O)[C@H](Cc2ccc(O)cc2)NC(=O)[C@H](Cc2c[nH]c3ccccc23)NC(=O)CNC(=O)[C@H](CO)NC(=O)[C@H](Cc2ccc(O)cc2)NC(=O)[C@H](C(C)C)NC1=O [Example 1064] ({CH2CO}-FYLVYSGWY[NMeF][NMeA]CG-NH2; thioether N-12) — 1.9-fold lower, 199 nM
- CCC(C)[C@@H]1NC(=O)[C@H](Cc2c[nH]c3ccccc23)NC(=O)[C@H](Cc2ccccc2)NC(=O)[C@H](Cc2ccc(O)cc2)NC(=O)[C@@H](Cc2ccccc2)NC(=O)CSC[C@@H](C(N)=O)NC(=O)[C@H](C)NC(=O)[C@H](C(C)CC)NC(=O)[C@H](C(C)C)NC(=O)[C@H](Cc2c[nH]c3ccccc23)NC(=O)[C@H](CCCNC(=N)N)NC(=O)CNC1=O (stereo partly drawn) [Example 1050] ({CH2CO}-[dF]YFW[Ile(3ξ)]GRWV[Ile(3ξ)]AC-NH2; thioether N-12) — 25-fold lower, 15 nM
- CC(C)C[C@@H]1NC(=O)[C@H](Cc2ccc(O)cc2)NC(=O)[C@H](Cc2ccccc2)NC(=O)CSC[C@@H](C(=O)NCC(N)=O)NC(=O)[C@H](CC(C)C)NC(=O)[C@H](Cc2ccccc2)N(C)C(=O)[C@H](Cc2ccc(O)cc2)NC(=O)[C@H](Cc2c[nH]c3ccccc23)NC(=O)CNC(=O)[C@H](Cc2ccccc2)NC(=O)[C@H](Cc2ccc(O)cc2)NC(=O)[C@H](C(C)C)NC1=O [Example 1043] ({CH2CO}-FYLVYFGWY[NMeF]LCG-NH2; thioether N-12) — 9.9-fold lower, 38 nM
- CC(C)C[C@@H]1NC(=O)[C@H](Cc2ccc(O)cc2)NC(=O)[C@H](C(C)C)NC(=O)[C@H](CC(C)C)NC(=O)[C@H](Cc2ccc(O)cc2)NC(=O)[C@H](Cc2ccccc2)NC(=O)CSC[C@@H](C(=O)NCC(N)=O)NC(=O)[C@H](CC(C)C)NC(=O)[C@H](Cc2ccccc2)N(C)C(=O)[C@H](Cc2ccc(O)cc2)NC(=O)[C@H](Cc2c[nH]c3ccccc23)NC(=O)CNC1=O [Example 1044] ({CH2CO}-FYLVYLGWY[NMeF]LCG-NH2; thioether N-12) — 9.9-fold lower, 38 nM
- CC(C)CC1NC(=O)[C@H](Cc2ccc(O)cc2)NC(=O)[C@H](C(C)C)NC(=O)CSC[C@@H](C(=O)NCC(N)=O)NC(=O)[C@H](CC(C)C)NC(=O)[C@H](Cc2ccccc2)N(C)C(=O)[C@H](Cc2ccc(O)cc2)NC(=O)[C@H](Cc2c[nH]c3ccccc23)NC(=O)CNC(=O)[C@H](CO)NC(=O)[C@H](Cc2ccc(O)cc2)NC(=O)[C@H](C(C)C)NC1=O (stereo partly drawn) [Example 1074] ({CH2CO}-VY[ξL]VYSGWY[NMeF]LCG-NH2; thioether N-12) — 3.1-fold lower, 122 nM
- CC(C)C[C@@H]1NC(=O)[C@H](Cc2ccc(O)cc2)NC(=O)[C@H](Cc2ccc3ccccc3c2)NC(=O)CSC[C@@H](C(=O)NCC(N)=O)NC(=O)[C@H](CC(C)C)NC(=O)[C@H](Cc2ccccc2)N(C)C(=O)[C@H](Cc2ccc(O)cc2)NC(=O)[C@H](Cc2c[nH]c3ccccc23)NC(=O)CNC(=O)[C@H](CO)NC(=O)[C@H](Cc2ccc(O)cc2)NC(=O)[C@H](C(C)C)NC1=O [Example 1092] ({CH2CO}-[2Nal]YLVYSGWY[NMeF]LCG-NH2; thioether N-12) — 8.8-fold lower, 43 nM
